Earlier results as cited in paper PMC5413030, “Radiochemistry on electrodes: Synthesis of an ^18F-labelled and in vivo stable COX-2 inhibitor” (PLoS ONE, 2017).

What was measured:
[1] = oxidation of the methyl group

Cc1ccc(-c2cc(C(F)(F)F)nn2-c2ccc(S(N)(=O)=O)cc2)cc1 [Celecoxib, 4-[5-(4-Methylphenyl)-3-(trifluoromethyl)-1H-pyrazol-1-yl]benzenesulfonamide]
protein binding in plasma: > 95% | metabolic behavior of celecoxib [1]: almost completely metabolized
